In ChEMBL document CHEMBL1201861, “Genomics of Drug Sensitity in Cancer screening data, Wellcome Trust Sanger Institute”:

Legend:
[1] = system: CP66-MEL; experiment: cells; type: functional, cell-based; conditions: Homo sapiens;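 note: growth inhibition of CP66-MEL cells determined in a cell viability assay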
Description: SANGER: Inhibition of human CP66-MEL cell growth in a cell viability assay.

[2] = system: CPC-N; experiment: cells; type: functional, cell-based, Homo sapiens; conditions: Homo sapiens, CPC-N;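 note: growth inhibition of CPC-N cells, with a cell viability assay as the readout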
Description: SANGER: Inhibition of human CPC-N cell growth in a cell viability assay.

[3] = system: CaR-1; experiment: cells; type: functional, cell-based; conditions: Homo sapiens;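 note: growth inhibition of human CaR-1 cancer cells, read out with a cell viability assay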
Description: SANGER: Inhibition of human CaR-1 cell growth in a cell viability assay.

[4] = system: DMS-79; experiment: cells; type: functional, cell-based, Homo sapiens; conditions: Homo sapiens, DMS-79
Description: SANGER: Inhibition of human DMS-79 cell growth in a cell viability assay.

[5] = system: DU-145; experiment: cells; type: functional, cell-based; conditions: Homo sapiens
Description: SANGER: Inhibition of human DU-145 cell growth in a cell viability assay.

[6] = system: Daoy; experiment: cells; type: functional, cell-based; conditions: Homo sapiens;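 note: daoy cell growth inhibition, read out as cell viability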
Description: SANGER: Inhibition of human Daoy cell growth in a cell viability assay.

[7] = system: GP5d; experiment: cells; type: functional, cell-based; conditions: Homo sapiens;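 note: growth inhibition of human GP5d cells, read out with a cell viability assay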
Description: SANGER: Inhibition of human GP5d cell growth in a cell viability assay.

[8] = system: HCC1569; experiment: cells; type: functional, cell-based; conditions: Homo sapiens;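 note: growth inhibition of human HCC1569 cells, read out with a cell viability assay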
Description: SANGER: Inhibition of human HCC1569 cell growth in a cell viability assay.

[9] = system: HCC 2998; experiment: cells; type: functional, cell-based; conditions: Homo sapiens;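 note: growth inhibition of human HCC2998 cells, measured with a cell viability read-out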
Description: SANGER: Inhibition of human HCC2998 cell growth in a cell viability assay.

[10] = system: HCC70; experiment: cells; type: functional, cell-based; conditions: Homo sapiens;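 note: cell viability assay measuring how strongly the compound suppresses proliferation of HCC70 cells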
Description: SANGER: Inhibition of human HCC70 cell growth in a cell viability assay.

[11] = system: HO-1-N-1; experiment: cells; type: functional, cell-based; conditions: Homo sapiens;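 note: growth inhibition of human HO-1-N-1 cells, read out with a cell viability assay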
Description: SANGER: Inhibition of human HO-1-N-1 cell growth in a cell viability assay.

[12] = system: HOP-92; experiment: cells; type: functional, cell-based; conditions: Homo sapiens;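 note: cell viability readout, with IC50 reflecting inhibition of HOP-92 cell growth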
Description: SANGER: Inhibition of human HOP-92 cell growth in a cell viability assay.

[13] = system: HuTu80; experiment: cells; type: functional, cell-based, Homo sapiens, HUTU-80; conditions: Homo sapiens, HuTu80;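 note: growth inhibition of HuTu80 human cells, determined with a cell viability readout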
Description: SANGER: Inhibition of human HUTU-80 cell growth in a cell viability assay.

[14] = system: HuP-T3; experiment: cells; type: functional, cell-based; conditions: Homo sapiens;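 note: HuP-T3 cell growth inhibition, read out with a cell viability assay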
Description: SANGER: Inhibition of human HuP-T3 cell growth in a cell viability assay.

[15] = system: IM-9; experiment: SANGER: Inhibition of human IM-9 cell growth in a cell viability assay.; type: functional, cell-based; conditions: Homo sapiens, IM-9
[16] = system: IST-SL2; experiment: cells; type: functional, cell-based, Homo sapiens; conditions: Homo sapiens, IST-SL2;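 note: growth inhibition of human IST-SL2 cells, read out by a cell viability assay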
Description: SANGER: Inhibition of human IST-SL2 cell growth in a cell viability assay.

[17] = system: J82; experiment: cells; type: functional, cell-based; conditions: Homo sapiens;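 note: growth inhibition of J82 cells, read out with a cell viability assay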
Description: SANGER: Inhibition of human J82 cell growth in a cell viability assay.

[18] = system: KYSE-520 cell line; experiment: cells; type: functional, cell-based; conditions: Homo sapiens;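 note: growth inhibition of human KYSE-520 cells, read out with a viability assay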
Description: SANGER: Inhibition of human KYSE-520 cell growth in a cell viability assay.

[19] = system: L-540; experiment: cells; type: functional, cell-based, Homo sapiens; conditions: Homo sapiens, L-540;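 note: growth inhibition of the human L-540 cell line, read out with a viability assay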
Description: SANGER: Inhibition of human L-540 cell growth in a cell viability assay.

[20] = system: LK-2; experiment: cells; type: functional, cell-based; conditions: Homo sapiens;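 note: growth inhibition of LK-2 cells, read out with a viability assay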
Description: SANGER: Inhibition of human LK-2 cell growth in a cell viability assay.

[21] = system: LOUCY; experiment: cells; type: functional, cell-based, Homo sapiens; conditions: Homo sapiens, LOUCY;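 note: growth inhibition of human LOUCY cells, read out with a cell viability assay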
Description: SANGER: Inhibition of human LOUCY cell growth in a cell viability assay.

[22] = system: MFE-280; experiment: cells; type: functional, cell-based; conditions: Homo sapiens;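 note: growth inhibition of MFE-280 cells, determined with a cell viability readout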
Description: SANGER: Inhibition of human MFE-280 cell growth in a cell viability assay.

[23] = system: MKN-28; experiment: cells; type: functional, cell-based; conditions: Homo sapiens;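 note: cell viability assay read-out, IC50 reflects suppression of growth of human MKN-28 cells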
Description: SANGER: Inhibition of human MKN28 cell growth in a cell viability assay.

[24] = system: NCI-H1436; experiment: cells; type: functional, cell-based, Homo sapiens; conditions: Homo sapiens, NCI-H1436;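 note: growth suppression of human NCI-H1436 cells, determined with a cell viability readout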
Description: SANGER: Inhibition of human NCI-H1436 cell growth in a cell viability assay.

[25] = system: NCI-H187; experiment: cells; type: functional, cell-based, Homo sapiens; conditions: Homo sapiens, NCI-H187;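 note: growth inhibition of NCI-H187 cells, read out as cell viability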
Description: SANGER: Inhibition of human NCI-H187 cell growth in a cell viability assay.

[26] = system: NCI-H2009; experiment: cells; type: functional, cell-based; conditions: Homo sapiens;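 note: cell viability assay measuring inhibition of NCI-H2009 cell growth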
Description: SANGER: Inhibition of human NCI-H2009 cell growth in a cell viability assay.

[27] = system: NCI-H2141; experiment: cells; type: functional, cell-based, Homo sapiens; conditions: Homo sapiens, NCI-H2141;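 note: growth inhibition of human NCI-H2141 cells, read out with a cell viability assay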
Description: SANGER: Inhibition of human NCI-H2141 cell growth in a cell viability assay.

[28] = system: NCI-H292; experiment: cells; type: functional, cell-based; conditions: Homo sapiens;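 note: growth inhibition of NCI-H292 cells, read out with a cell viability assay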
Description: SANGER: Inhibition of human NCI-H292 cell growth in a cell viability assay.

[29] = system: NCI-H441; experiment: cells; type: functional, cell-based; conditions: Homo sapiens;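 note: growth inhibition of NCI-H441 cells, read out with a cell viability assay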
Description: SANGER: Inhibition of human NCI-H441 cell growth in a cell viability assay.

[30] = system: NCI-H520; experiment: cells; type: functional, cell-based; conditions: Homo sapiens;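 note: growth inhibition of NCI-H520 cells, measured by a cell viability assay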
Description: SANGER: Inhibition of human NCI-H520 cell growth in a cell viability assay.

[31] = system: NCI-H650; experiment: cells; type: functional, cell-based; conditions: Homo sapiens;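 note: growth inhibition of NCI-H650 cells, read out by a viability assay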
Description: SANGER: Inhibition of human NCI-H650 cell growth in a cell viability assay.

[32] = system: NCI-H719; experiment: cells; type: functional, cell-based, Homo sapiens; conditions: Homo sapiens, NCI-H719;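 note: growth inhibition of the cultured cell line, read out with a viability assay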
Description: SANGER: Inhibition of human NCI-H719 cell growth in a cell viability assay.

[33] = system: SNU-16; experiment: cells; type: functional, cell-based, Homo sapiens; conditions: Homo sapiens, SNU-16;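 note: growth inhibition of human SNU-16 cells, determined with a cell viability readout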
Description: SANGER: Inhibition of human NCI-SNU-16 cell growth in a cell viability assay.

[34] = system: OE33; experiment: cells; type: functional, cell-based; conditions: Homo sapiens;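 note: growth inhibition of human OE33 cells, measured by a cell viability assay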
Description: SANGER: Inhibition of human OE33 cell growth in a cell viability assay.

[35] = system: OPM-2; experiment: cells; type: functional, cell-based, Homo sapiens; conditions: Homo sapiens, OPM-2;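 note: growth of OPM-2 cells measured with a viability assay, IC50 for suppression of proliferation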
Description: SANGER: Inhibition of human OPM-2 cell growth in a cell viability assay.

[36] = system: OVCAR-5; experiment: cells; type: functional, cell-based; conditions: Homo sapiens;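 note: growth inhibition of human OVCAR-5 cells, read out with a cell viability assay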
Description: SANGER: Inhibition of human OVCAR-5 cell growth in a cell viability assay.

[37] = system: PANC-08-13; experiment: cells; type: functional, cell-based; conditions: Homo sapiens
Description: SANGER: Inhibition of human PANC-08-13 cell growth in a cell viability assay.

[38] = system: RCM-1; experiment: cells; type: functional, cell-based; conditions: Homo sapiens;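 note: growth inhibition of the RCM-1 line, determined with a cell viability readout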
Description: SANGER: Inhibition of human RCM-1 cell growth in a cell viability assay.

[39] = system: RPMI-7951; experiment: cells; type: functional, cell-based; conditions: Homo sapiens
Description: SANGER: Inhibition of human RPMI-7951 cell growth in a cell viability assay.

[40] = system: SAS; experiment: cells; type: functional, cell-based; conditions: Homo sapiens;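 note: growth inhibition of SAS cells, read out with a cell viability assay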
Description: SANGER: Inhibition of human SAS cell growth in a cell viability assay.

[41] = system: SF-295; experiment: cells; type: functional, cell-based; conditions: Homo sapiens;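 note: growth inhibition of SF-295 cells, read out with a cell viability assay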
Description: SANGER: Inhibition of human SF295 cell growth in a cell viability assay.

[42] = system: SUP-T1; experiment: cells; type: functional, cell-based, Homo sapiens; conditions: Homo sapiens, SUP-T1;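 note: growth inhibition of human SUP-T1 cells, read out as cell viability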
Description: SANGER: Inhibition of human SUP-T1 cell growth in a cell viability assay.

[43] = system: SW-620; experiment: cells; type: functional, cell-based; conditions: Homo sapiens;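 note: growth inhibition of human SW-620 cells, measured by a cell viability assay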
Description: SANGER: Inhibition of human SW620 cell growth in a cell viability assay.

[44] = system: SW780; experiment: cells; type: functional, cell-based; conditions: Homo sapiens;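 note: growth inhibition of the cells, read out with a cell viability assay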
Description: SANGER: Inhibition of human SW780 cell growth in a cell viability assay.

[45] = system: SW837; experiment: cells; type: functional, cell-based; conditions: Homo sapiens;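 note: growth inhibition of SW837 cells, determined with a cell viability assay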
Description: SANGER: Inhibition of human SW837 cell growth in a cell viability assay.

[46] = system: T47D; experiment: cells; type: functional, cell-based; conditions: Homo sapiens;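 note: growth inhibition of human T47D cells, measured with a cell viability assay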
Description: SANGER: Inhibition of human T47D cell growth in a cell viability assay.

[47] = system: 647-V; experiment: cells; type: functional, cell-based; conditions: Homo sapiens;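 note: growth inhibition of 647-V cells, read out with a cell viability assay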
Description: SANGER: Inhibition of human 647-V cell growth in a cell viability assay.

[48] = system: A-375; experiment: cells; type: functional, cell-based; conditions: Homo sapiens;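 note: growth inhibition of A375 cells, read out with a cell viability assay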
Description: SANGER: Inhibition of human A375 cell growth in a cell viability assay.

[49] = system: BHY; experiment: cells; type: functional, cell-based; conditions: Homo sapiens;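 note: cell growth inhibition read out by a viability assay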
Description: SANGER: Inhibition of human BHY cell growth in a cell viability assay.

[50] = system: C32; experiment: cells; type: functional, cell-based; conditions: Homo sapiens;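 note: cell viability assay, with IC50 reflecting inhibition of C32 cell growth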
Description: SANGER: Inhibition of human C32 cell growth in a cell viability assay.

[51] = system: CAL-51; experiment: cells; type: functional, cell-based; conditions: Homo sapiens;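 note: human CAL-51 cell line, growth inhibition read out via a cell viability assay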
Description: SANGER: Inhibition of human CAL-51 cell growth in a cell viability assay.

[52] = system: CAL-54; experiment: cells; type: functional, cell-based; conditions: Homo sapiens;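 note: growth inhibition of CAL-54 cells, read out by a viability measurement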
Description: SANGER: Inhibition of human CAL-54 cell growth in a cell viability assay.

[53] = system: CAL-72; experiment: cells; type: functional, cell-based; conditions: Homo sapiens;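 note: cell viability assay measuring inhibition of proliferation in the CAL-72 cell line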
Description: SANGER: Inhibition of human CAL-72 cell growth in a cell viability assay.

[54] = system: TYK-nu; experiment: cells; type: functional, cell-based; conditions: Homo sapiens;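 note: growth inhibition of human TYK-nu cells, read out by a cell viability assay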
Description: SANGER: Inhibition of human TYK-nu cell growth in a cell viability assay.

[55] = system: UACC-812; experiment: cells; type: functional, cell-based; conditions: Homo sapiens
Description: SANGER: Inhibition of human UACC-812 cell growth in a cell viability assay.

[56] = system: VM-CUB-1; experiment: cells; type: functional, cell-based; conditions: Homo sapiens
Description: SANGER: Inhibition of human VM-CUB-1 cell growth in a cell viability assay.

[57] = system: VMRC-RCZ; experiment: cells; type: functional, cell-based; conditions: Homo sapiens
Description: SANGER: Inhibition of human VMRC-RCZ cell growth in a cell viability assay.

OC[C@H](Cc1ccccc1)Nc1nc(Oc2ccc3c(c2)CCC3)nc2c1ncn2Cc1ccc(-c2ccccc2)cc1
IC50 [1]: > 10200 nM
IC50 [2]: > 10200 nM
IC50 [3]: > 10200 nM
IC50 [4]: > 10200 nM
IC50 [5]: 7860 nM
IC50 [6]: 2930 nM
IC50 [7]: > 10200 nM
IC50 [8]: > 10200 nM
IC50 [9]: > 10200 nM
IC50 [10]: > 10200 nM
IC50 [11]: > 10200 nM
IC50 [12]: > 10200 nM
IC50 [13]: 1310 nM
IC50 [14]: > 10200 nM
IC50 [15]: > 10200 nM
IC50 [16]: > 10200 nM
IC50 [17]: 9510 nM
IC50 [18]: > 10200 nM
IC50 [19]: > 10200 nM
IC50 [20]: > 10200 nM
IC50 [21]: > 10200 nM
IC50 [22]: > 10200 nM
IC50 [23]: 1730 nM
IC50 [24]: > 10200 nM
IC50 [25]: > 10200 nM
IC50 [26]: > 10200 nM
IC50 [27]: > 10200 nM
IC50 [28]: > 10200 nM
IC50 [29]: > 10200 nM
IC50 [30]: > 10200 nM
IC50 [31]: 7390 nM
IC50 [32]: > 10200 nM
IC50 [33]: > 10200 nM
IC50 [34]: > 10200 nM
IC50 [35]: > 10200 nM
IC50 [36]: > 10200 nM
IC50 [37]: > 10200 nM
IC50 [38]: > 10200 nM
IC50 [39]: 1410 nM
IC50 [40]: 4800 nM
IC50 [41]: 3230 nM
IC50 [42]: 4970 nM
IC50 [43]: 3160 nM
IC50 [44]: > 10200 nM
IC50 [45]: > 10200 nM
IC50 [46]: > 10200 nM
IC50 [47]: > 10200 nM
IC50 [48]: 6870 nM
IC50 [49]: 5130 nM
IC50 [50]: > 10200 nM
IC50 [51]: 2230 nM
IC50 [52]: > 10200 nM
IC50 [53]: > 10200 nM
IC50 [54]: > 10200 nM
IC50 [55]: > 10200 nM
IC50 [56]: > 10200 nM
IC50 [57]: > 10200 nM

C/C(=C\c1csc(C)n1)[C@@H]1C[C@@H]2O[C@]2(C)CCC[C@H](C)[C@H](O)[C@@H](C)C(=O)C(C)(C)[C@@H](O)CC(=O)O1 [PATUPILONE]
IC50 [1]: 11.7 nM
IC50 [2]: 10.7 nM
IC50 [3]: > 32 nM
IC50 [4]: > 32 nM
IC50 [5]: 0.721 nM
IC50 [6]: < 0.125 nM
IC50 [7]: 3.09 nM
IC50 [8]: 12.8 nM
IC50 [9]: 1.05 nM
IC50 [10]: 4.79 nM
IC50 [11]: 1.66 nM
IC50 [12]: > 32 nM
IC50 [13]: 0.328 nM
IC50 [14]: 3.81 nM
IC50 [15]: > 32 nM
IC50 [16]: 7.03 nM
IC50 [17]: 1.41 nM
IC50 [18]: 10.4 nM
IC50 [19]: 10.7 nM
IC50 [20]: 4.86 nM
IC50 [21]: 4.35 nM
IC50 [22]: > 32 nM
IC50 [23]: 0.462 nM
IC50 [24]: 7.83 nM
IC50 [25]: > 32 nM
IC50 [26]: 0.862 nM
IC50 [27]: 13.7 nM
IC50 [28]: 1.42 nM
IC50 [29]: 2.53 nM
IC50 [30]: 2.95 nM
IC50 [31]: 0.17 nM
IC50 [32]: > 32 nM
IC50 [33]: 31 nM
IC50 [34]: 7.63 nM
IC50 [35]: > 32 nM
IC50 [36]: 2.84 nM
IC50 [37]: 31.1 nM
IC50 [38]: 15.2 nM
IC50 [39]: 1.05 nM
IC50 [40]: > 32 nM
IC50 [41]: 1.92 nM
IC50 [42]: > 32 nM
IC50 [43]: 0.648 nM
IC50 [44]: > 32 nM
IC50 [45]: 2.47 nM
IC50 [46]: > 32 nM
IC50 [47]: 2.42 nM
IC50 [48]: 0.05 nM
IC50 [49]: 0.195 nM
IC50 [50]: > 32 nM
IC50 [51]: 1.66 nM
IC50 [52]: > 32 nM
IC50 [53]: > 32 nM
IC50 [54]: > 32 nM
IC50 [55]: > 32 nM
IC50 [56]: 3.09 nM
IC50 [57]: 0.136 nM
